# Laboratory results from patent US20260250627A1, “A new bacterial strain Weissella cibaria, a composition comprising it, a pharmaceutical composition for use, a dietary supplement, a probiotic preparation, a bacterial starter culture for making bread, sourdough, bread, a method for the production of bread, a method for microbiological production …” (INSTYTUT BIOCHEMII I BIOFIZVKI PAN, priority 2023, published 2026).
# Tested on: IBB3394 strain (KKP 2094p)
# Assay: Antibiotic sensitivity test with E-test strips (Example 11)
# Type: cell-based, Weissella cibaria
# Conditions: E-test strips, IST-MRS, 30° C., 48 h, aerobic
# Procedure: The safety assessment of the selected strain of Weissella sp. IBB3394 was carried out by testing antibiotic susceptibility using E-test strips (bioMerieux) in accordance with the manufacturer's recommendations. The tested strain was seeded on IST-MRS solid medium and incubated at 30° C. in aerobic conditions. […] Antibiotic strips were placed on the surface of the plate and the plates were incubated at 30° C. for 48 h in aerobic conditions.
row,Compound,Minimum inhibitory concentration (MIC) IBB3394 [µg/mL]
1,gentamicin [GM],4

# Same assay, conditions: Weissella cibaria, 48 h, read-out: Minimum inhibitory concentration (MIC) IBB3394
row,Compound,MIC [µg/mL]
1,"CN[C@H](CC(C)C)C(=O)N[C@H]1C(=O)N[C@@H](CC(N)=O)C(=O)N[C@H]2C(=O)N[C@H]3C(=O)N[C@H](C(=O)N[C@H](C(=O)O)c4cc(O)cc(O)c4-c4cc3ccc4O)[C@H](O)c3ccc(c(Cl)c3)Oc3cc2cc(c3O[C@@H]2O[C@H](CO)[C@@H](O)[C@H](O)[C@H]2O[C@H]2C[C@](C)(N)[C@H](O)[C@H](C)O2)Oc2ccc(cc2Cl)[C@H]1O [VA, vancomycin]",> 256

# Same assay, conditions: Weissella cibaria; E-test strips, IST-MRS, 30° C., 48 h, aerobic; read-out: Minimum inhibitory concentration (MIC) IBB3394
row,Compound,MIC [µg/mL]
1,"CC1(C)S[C@@H]2[C@H](NC(=O)[C@H](N)c3ccccc3)C(=O)N2[C@H]1C(=O)O [AM, ampicillin]",0.38 to 0.5
2,"O=C(N[C@H](CO)[C@H](O)c1ccc([N+](=O)[O-])cc1)C(Cl)Cl [CL, chloramphenicol]",2 to 3
3,"CCC[C@@H]1C[C@@H](C(=O)N[C@@H]([C@H]2O[C@H](SC)[C@H](O)[C@@H](O)[C@H]2O)[C@H](C)Cl)N(C)C1 [CM, clindamycin]",0.016
4,"CC[C@H]1OC(=O)[C@H](C)[C@@H](O[C@H]2C[C@@](C)(OC)[C@@H](O)[C@H](C)O2)[C@H](C)[C@@H](O[C@@H]2O[C@H](C)C[C@H](N(C)C)[C@H]2O)[C@](C)(O)C[C@@H](C)C(=O)[C@H](C)[C@@H](O)[C@]1(C)O [EM, erythromycin]",0.094
5,"NC[C@H]1O[C@H](O[C@H]2[C@H](O)[C@@H](O[C@H]3O[C@H](CO)[C@@H](O)[C@H](N)[C@H]3O)[C@H](N)C[C@@H]2N)[C@H](O)[C@@H](O)[C@@H]1O [KM, kanamycin]",16
6,"[H]/N=C(/N)N[C@H]1[C@H](O)[C@@H](O)[C@H](O[C@@H]2O[C@@H](C)[C@](O)(C=O)[C@H]2O[C@@H]2O[C@@H](CO)[C@H](O)[C@@H](O)[C@@H]2NC)[C@@H](N/C(N)=N\[H])[C@@H]1O [SM, streptomycin]",8
7,"CN(C)[C@@H]1C(O)=C(C(N)=O)C(=O)[C@@]2(O)C(O)=C3C(=O)c4c(O)cccc4[C@@](C)(O)[C@H]3C[C@@H]12 [TC, tetracycline]",2
